Results from US6593319B1, “Fusidic acid derivatives” (Leo Pharmaceutical Products, Ltd. A/S, priority 2001, dated 2003).
Values after ≈ are worked out from the molar mass of the structure shown.

Columns and labels:
S. aureus ATCC2977 = test: MIC, agar diffusion method (European Pharmacopoeia 3rd Ed.); assay type: cell-based
Method: (§1) The antibacterial activity of some of these compounds relative to fusidic acid appears from Table 2 showing MIC values for compounds of the invention. The method used is recommended by the European Pharmacopoeia 3rd Ed. (1997) for testing the potency of antibiotics. It is an agar diffusion method where the same volume of the tested solution is added to cavities in agar. The inhibition zones are a function of the concentration of the fusidic acid analogue used. All assays are run with fusidic acid (1) as the reference substance. The results in Table 2 differ from those of Table 1 due to the different experimental methods used.

S. aureus ATCC6538P = test: as above; assay type: cell-based
Method: as §1

S. aureus Leo id. CJ232 = test: as above; assay type: cell-based; settings: S. aureus Leo id. CJ232, MRSA
Method: as §1

S. aureus Leoid CJ234(R) = test: as above; assay type: cell-based; settings: MRSA and Rifampicin resistant
Method: as §1

[1] = tested on: Strep. epidermis A. ATCC12228; test: as above; assay type: cell-based
Method: as §1

[2] = tested on: Strep. faecalis ATCC10541; test: as above; assay type: cell-based
Method: as §1

[3] = tested on: Strep. faecium Leo id. E119(P); test: as above; assay type: cell-based; settings: Penicillin resistant
Method: as §1

[4] = tested on: Strep. sp. Gr.B Leo id. EF6; test: as above; assay type: cell-based
Method: as §1

C. diphteria/62001 = test: MIC, microtitter plates, liquid medium containing broth; assay type: cell-based; settings: read-out: MIC values (concentrations in μg/ml required for 90% inhibition)
Method: (§2) In vitro investigations have evidenced high potency of compounds of the invention against several bacteria including staphylococci, streptococci, corynebacteriae and mycobacteriae. […] The biological tests are conducted on microtitter plates using liquid medium containing broth.

[5] = tested on: E. faecalis/V583 P. Cour.; test: as above; assay type: cell-based; settings: Enterococcus faecalis, VanR, read-out: MIC values (concentrations in μg/ml required for 90% inhibition)
Method: as §2

M. tuberculosis/R 498 = test: as above; assay type: cell-based; settings: Mycobacterium tuberculosis, read-out: MIC values (concentrations in μg/ml required for 90% inhibition)
Method: as §2

N. gonorrhoea/C1 = test: as above; assay type: cell-based; settings: read-out: MIC values (concentrations in μg/ml required for 90% inhibition)
Method: as §2

N. meningitidis/K1 = test: as above; assay type: cell-based; settings: Neisseria meningitidis, read-out: MIC values (concentrations in μg/ml required for 90% inhibition)
Method: as §2

P. acnes/1060 = test: as above; assay type: cell-based; settings: Cutibacterium acnes, read-out: MIC values (concentrations in μg/ml required for 90% inhibition)
Method: as §2

S. aureus/1 Aus-pe = test: as above; assay type: cell-based; settings: Staphylococcus aureus, FusS, MRSA, read-out: MIC values (concentrations in μg/ml required for 90% inhibition)
Method: as §2

S. aureus/22 DK = test: as above; assay type: cell-based; settings: Staphylococcus aureus, FusS, MSSA, read-out: MIC values (concentrations in μg/ml required for 90% inhibition)
Method: as §2

S. aureus/54 USA-br = test: as above; assay type: cell-based; settings: Staphylococcus aureus, FusR, MSSA, read-out: MIC values (concentrations in μg/ml required for 90% inhibition)
Method: as §2

S. aureus/ATCC 29213 = test: as above; assay type: cell-based; settings: Staphylococcus aureus, ATCC 29213 / MSSA, FusS, read-out: MIC values (concentrations in μg/ml required for 90% inhibition)
Method: as §2

Staphylococcus/291-2 = test: as above; assay type: cell-based; settings: Staphylococcus/291-2, coagulase negative, FusS, read-out: MIC values (concentrations in μg/ml required for 90% inhibition)
Method: as §2

Staphylococcus/379-2 = test: as above; assay type: cell-based; settings: Staphylococcus/379-2, coagulase negative, FusR, read-out: MIC values (concentrations in μg/ml required for 90% inhibition)
Method: as §2

[6] = tested on: Streptococcus - gr.A/67011; test: as above; assay type: cell-based; settings: read-out: MIC values (concentrations in μg/ml required for 90% inhibition)
Method: as §2

Streptococcus - gr.B/61 = test: as above; assay type: cell-based; settings: read-out: MIC values (concentrations in μg/ml required for 90% inhibition)
Method: as §2

Streptococcus - gr.C/68 = test: as above; assay type: cell-based; settings: read-out: MIC values (concentrations in μg/ml required for 90% inhibition)
Method: as §2

Streptococcus - gr.G/59 = test: as above; assay type: cell-based; settings: read-out: MIC values (concentrations in μg/ml required for 90% inhibition)
Method: as §2

[7] = Stability in ethanol solution (retained activity); assay type: physicochemical; settings: solution in ethanol stored at 0° C. for 1 month
[8] = relative to fusidic acid; reduction of C-24/C-25 and C-17/C-20 double bonds; cited from earlier work
[9] = Staphylococcus aureus, read-out: MIC values (concentrations in μg/ml required for 90% inhibition)
[10] = read-out: MIC values (concentrations in μg/ml required for 90% inhibition)

## CCO[C@H]1C[C@@]2(C)[C@@H](C[C@@H](O)[C@H]3[C@@]4(C)CC[C@@H](O)[C@@H](C)[C@@H]4CC[C@@]32C)[C@H]1[C@H](CCC=C(C)C)C(=O)O [Compound 123, 16-Deacetoxy-16β-ethoxy-17(S),20(S)-dihydrofusidic Acid]
S. aureus ATCC2977
  MIC values (concentrations in μg/ml required for 90% inhibition): 0.02 µg/mL
S. aureus ATCC6538P
  MIC values (concentrations in μg/ml required for 90% inhibition): 0.02 µg/mL
S. aureus Leo id. CJ232
  MIC values (concentrations in μg/ml required for 90% inhibition): 0.005 µg/mL
S. aureus Leoid CJ234(R)
  MIC values (concentrations in μg/ml required for 90% inhibition): 0.007 µg/mL
[1]
  MIC values (concentrations in μg/ml required for 90% inhibition): 0.5 µg/mL
[2]
  MIC values (concentrations in μg/ml required for 90% inhibition): 16 µg/mL
[3]
  MIC values (concentrations in μg/ml required for 90% inhibition): 16 µg/mL
[4]
  MIC values (concentrations in μg/ml required for 90% inhibition): 16 µg/mL

## COCO[C@H]1C[C@@]2(C)[C@@H](C[C@@H](O)[C@H]3[C@@]4(C)CC[C@@H](O)[C@@H](C)[C@@H]4CC[C@@]32C)[C@H]1[C@H](CCC=C(C)C)C(=O)O [Compound 128, 16-Deacetoxy-16β-methoxymethoxy-17(S),20(S)-dihydrofusidic acid]
S. aureus ATCC2977
  MIC values (concentrations in μg/ml required for 90% inhibition): 0.19 µg/mL
S. aureus ATCC6538P
  MIC values (concentrations in μg/ml required for 90% inhibition): 0.26 µg/mL
S. aureus Leo id. CJ232
  MIC values (concentrations in μg/ml required for 90% inhibition): >64 µg/mL
S. aureus Leoid CJ234(R)
  MIC values (concentrations in μg/ml required for 90% inhibition): >64 µg/mL
[1]
  MIC values (concentrations in μg/ml required for 90% inhibition): 0.5 µg/mL
[2]
  MIC values (concentrations in μg/ml required for 90% inhibition): 16 µg/mL
[3]
  MIC values (concentrations in μg/ml required for 90% inhibition): 16 µg/mL
[4]
  MIC values (concentrations in μg/ml required for 90% inhibition): 16 µg/mL

## CC(=O)O[C@H]1C[C@@]2(C)[C@@H](C[C@@H](O)[C@H]3[C@@]4(C)CC[C@@H](O)[C@@H](C)[C@@H]4CC[C@@]32C)/C1=C(\CCC=C(C)C)C(=O)O [Fusidic acid (1), Fusidic acid]
C. diphteria/62001
  MIC: 0.063 µg/mL (≈ 0.122 µM)
[5]
  MIC: 16 µg/mL (≈ 31 µM)
M. tuberculosis/R 498
  MIC: > 16 µg/mL
N. gonorrhoea/C1
  MIC: 1 µg/mL (≈ 1.94 µM)
N. meningitidis/K1
  MIC: 0.25 µg/mL (≈ 0.484 µM)
P. acnes/1060
  MIC: 0.125 µg/mL (≈ 0.242 µM)
S. aureus/1 Aus-pe
  MIC: 1 µg/mL (≈ 1.94 µM)
S. aureus/22 DK
  MIC: 0.5 µg/mL (≈ 0.968 µM)
S. aureus/54 USA-br
  MIC: 8 µg/mL (≈ 15.5 µM)
S. aureus/ATCC 29213
  MIC: 1 µg/mL (≈ 1.94 µM)
Staphylococcus/291-2
  MIC: 1 µg/mL (≈ 1.94 µM)
Staphylococcus/379-2
  MIC: 64 µg/mL (≈ 124 µM)
[6]
  MIC: 16 µg/mL (≈ 31 µM)
Streptococcus - gr.B/61
  MIC: 32 µg/mL (≈ 61.9 µM)
Streptococcus - gr.C/68
  MIC: 2 µg/mL (≈ 3.87 µM)
Streptococcus - gr.G/59
  MIC: 4 µg/mL (≈ 7.74 µM)
S. aureus ATCC2977; [9]
  MIC: 0.01 µg/mL (≈ 0.0194 µM)
S. aureus ATCC6538P; [9]
  MIC: 0.013 µg/mL (≈ 0.0252 µM)
S. aureus Leo id. CJ232; [9]
  MIC: 0.012 µg/mL (≈ 0.0232 µM)
S. aureus Leoid CJ234(R); [9]
  MIC: 0.01 µg/mL (≈ 0.0194 µM)
[1]; [10]
  MIC: 0.01 µg/mL (≈ 0.0194 µM)
[2]; Enterococcus faecalis, read-out: MIC values (concentrations in μg/ml required for 90% inhibition)
  MIC: 4.9 µg/mL (≈ 9.48 µM)
[3]; Enterococcus faecium, read-out: MIC values (concentrations in μg/ml required for 90% inhibition)
  MIC: 2.7 µg/mL (≈ 5.23 µM)
[4]; [10]
  MIC: 4.9 µg/mL (≈ 9.48 µM)
[7]
  retained initial activity: about 70%

## tetrahydrofusidic acid
[8]
  antibacterial activity: almost complete loss of activity
